The compounds below were run on P. falciparum 3D7 growth, pLDH absorbance (assay: P. falciparum 3D7 growth inhibition, dose response, strain 3D7 (AID 2305)).

SMILES | IC50 [nM]
Cc1cc(NC(=O)NCCN2CCC(NC(=O)c3ccc(F)cc3)CC2)c2ccccc2n1 | 330
O=C1C2=C(Nc3ccccc3SC2c2ccccc2)c2ccccc21 (configuration not stated) | 330
COC(=O)c1ccc(C2OC3(C(=O)c4ccccc4C3=O)C(OC)=C2Cl)cc1C(C)=O (configuration not stated) | 550
C=CCc1cc(Br)ccc1OCCCOc1c(N)nc(N)nc1N | 190
O=c1cc(NCCCNCc2cc(Cl)c(Cl)cc2Cl)[nH]c2ccccc12 | 970
O=C(/C=C/c1ccc(Cl)c(Cl)c1)NCCCCCN1CCC(CCNC(=O)c2snnc2-c2ccccc2)CC1 | 820
CCOC(=O)c1ccc(COc2ccc(C)nc2)cc1 | 540
CCc1cn2c3c(cc(C(=O)N[C@@H](Cc4ccccc4)[C@H](O)CNC4CCCCC4)cc13)N(C)S(=O)(=O)C2 | 90
O=C(Cc1cccc2ccccc12)N1CCc2cc3nccc(N4CCN5CCC[C@H]5C4)c3cc21 | 780
O=C(Cn1c(CCc2cccc(F)c2F)nc(=O)c2ccccc21)N(CCCN1CCCCC1)Cc1ccc(-c2ccc(C(F)(F)F)cc2)cc1 | 760
Cc1cccc(-c2ccc(NC(=O)Nc3ccc4nccc(N5CCN(C)CC5)c4c3)cc2C)n1 | 210
CC(Cc1ccc(OCCCCOc2ccccc2)cc1)NCCCn1ccnc1 (configuration not stated) | 170
CCN1CCN(Cc2ccc(NC(=O)c3cc4ccc5cccnc5c4[nH]3)cc2)CC1 | 850
COc1ccc(CCN(C)CCOc2ccc(NC(=O)COc3ccc4sc5ccccc5c(=O)c4c3)cc2)cc1OC | 1100
Oc1cc2c(cc1CN1CCN(Cc3ccccc3)CC1)CCC2 | 720
COc1cccc(C(=O)Nc2nc3c(s2)CCN(Cc2ccccc2N2CCNCC2)CC3)c1 | 890
CC(=O)c1ccc(-c2cccc3c(CC(=O)Nc4ccc5nccc(N6CCN(C)CC6)c5c4)cccc23)cc1 | 500
Cc1cc(NS(=O)(=O)c2cccc(C(C)N3CCC(N4CCCC4)CC3)c2)ccc1C(C)C (configuration not stated) | 820
Cc1cccc(C)c1N1CCN(C2CCC(NC(=O)c3cc4ccccc4[nH]3)CC2)CC1 (configuration not stated) | 600
c1cc(CNCCc2ccncc2)cc(-c2ccc(-c3nc4ccccc4[nH]3)cc2)c1 | 150
O=C(NC1CCC(N2CCC3(CC2)C(=O)NCN3c2ccccc2)CC1)c1cc2ccccc2[nH]1 (configuration not stated) | 680
CC(=O)Nc1ccc(Nc2cc(C)nc(Nc3ccc(NC(C)=O)cc3)n2)cc1 | 890
Cc1cc(Br)cnc1CCCCN=C1NC(=O)CN1C | 370
O=C(Nc1ccc(Cl)cc1)Nc1cccc(-c2cc(CNCCc3ccccc3)oc2-c2ccncc2)c1 | 280
CC(C)CCN1CCCN(Cc2cccc(NC(=O)c3cc4ccccc4s3)c2)CC1 | 920

SMILES | IC50 [nM]
CC(C)N1CCC(N(Cc2ccc(-c3ccc(C(F)(F)F)cc3)cc2)C(=O)Cn2c(SCc3cccc(F)c3F)nc(=O)c3ccccc32)CC1 | 1050
O=C(NC1CCC(CN2CCC(c3c[nH]c4ccccc34)CC2)CC1)c1[nH]c(=O)[nH]c(=O)c1F (configuration not stated) | 800
Cn1cc(-c2ccccc2C(=O)O)c(=O)c2cc(Cl)ccc21 | 920
CCCCN(CCCC)CCNC(=O)c1ccc(-c2nc3ccc(Cl)cc3[nH]2)c(OCC)c1 | 570
CC(Cc1ccc(-c2nc3ccccc3[nH]2)cc1)NCC(O)c1cccc(C(F)(F)F)c1 (configuration not stated) | 350
CN(C)c1ccc(N=C2N=C(Nc3ccc(N(C)C)cc3)c3ccccc32)cc1 | 850
CCNc1cc(C)nc(Nc2ccc(NC(=O)c3ccccc3Br)cc2)n1 | 740
Cc1[nH]c2ccccc2c1C(=O)C(C)Sc1nnc(-c2ccccc2F)o1 (configuration not stated) | 690
COc1ccc2nccc([C@@H](O)CN3CCC(NC(=O)c4nc(Cl)c(Cl)c(N)c4Cl)CC3)c2c1 | 1300
COc1ccc2nc(C)cc(Nc3ccc(Oc4ccc5ccccc5c4Cl)c(Cl)c3)c2c1 | 500
O=C(NC1CCN(CCC[C@]2(c3ccc(Cl)c(Cl)c3)CCCN(C(=O)c3ccccc3)C2)CC1)c1ccc(F)cc1 | 880
CCOc1ccc2ccccc2c1C(=O)Nc1cc(C)nn1-c1nc(C)cc(=O)[nH]1 | 1010
Fc1cccc(COc2ccc(Nc3ncnc4sc(C#C[C@H]5CCCN5)cc34)cc2F)c1 | 870
O=C(/C=C/c1ccc(Cl)c(Cl)c1)NCCCCCCN1CCN(C(=O)Nc2ccc(F)c(Cl)c2)CC1 | 940
CCCSc1nc2c(c(=O)n1CCc1ccccc1)C1(CCCC1)Cc1ccccc1-2 | 700
CC(C)CNC(=O)c1cncc(-c2ccc(CN(C)C3CCN(C)CC3)cc2)c1 | 880
O=C(CC1CCCCC1)NCC(NCCCNc1cc(=O)c2ccccc2[nH]1)c1cc(Br)cc(Br)c1 (configuration not stated) | 1050
Cc1nnsc1C(=O)Nc1cccc(-c2csc(-c3nc4ccccc4[nH]3)c2)c1 | 350
CCCN1CCc2c(sc3nc(SCC(=O)Nc4ccc(C)cc4)n(-c4ccc(C)cc4)c(=O)c23)C1 | 870
CC(C)(C)c1nn(-c2ccc(Cl)cc2)c2[nH]c(=O)c(CNC3CCCC3)cc12 | 230
COc1cccc(CN2CCCN(Cc3cccc(NC(=O)c4cc5ccccc5s4)c3)CC2)c1 | 1010
COc1cc(CCNc2nc(NCc3cccc4ccccc34)nc(N3CCC(N)CC3)n2)ccc1O | 790
CCOC(=O)C(NC(=O)Cc1ccccc1)C(C)C (configuration not stated) | 290
COc1ccc(NC(=O)c2ccc(NC(=O)c3ccc(Cl)cc3)cc2)cc1N1CCN(C)CC1 | 850
COCCCNc1sc(S(=O)(=O)c2ccccc2)nc1S(=O)(=O)c1ccc(Cl)cc1 | 880

SMILES | IC50 [nM]
CS(=O)(=O)c1ccc(-c2cc(C(F)(F)F)nc(N[C@@H]3CCCC[C@H]3OCc3ccccc3)n2)cc1 | 60
Cc1cccc2[nH]c(-c3cccc(-c4ccc(NC(=O)N[C@@H]5C[C@H]5c5ccccc5)cc4)c3)nc12 | 720
CCCC(C)Nc1nc(C)cc(NCCC(=O)Nc2ccc(OC)cc2)n1 (configuration not stated) | 1380
Cc1[nH]c(C)c(-c2cccc(Oc3ccc(Cl)cc3)c2)c(=O)c1Br | 70
Cc1cc(N(C)C)nc(Nc2ccc(NC(=O)c3ccc(Br)o3)cc2)n1 | 1050
O=C(Nc1cccc(-c2cccc(-c3nc4ccc(C(F)(F)F)cc4[nH]3)c2)c1)c1cnc[nH]1 | 210
O=C(NCCCCN1CCC[C@@H]2c3cccc(O)c3CC[C@@H]21)c1ccc(-c2ccccc2)cc1 | 1170
COc1cc(CNC[C@@H](O)[C@H](Cc2ccccc2)NC(=O)c2cc(OC(C)C)cc(N3CCCCS3(=O)=O)c2)cc(OC)c1 | 590
O=C(Nc1ccccc1Br)c1cn(-c2ccccc2)nc1-c1cccc([N+](=O)[O-])c1 | 1320
COC(=O)Cc1ccc(N)c2ccccc12 | 700
Cc1ccc(C(C#N)c2ccc3c(C(F)(F)F)cc(C(F)(F)F)nc3n2)cc1 (configuration not stated) | 700
Oc1ccc(CN2Cc3ccccc3OC3(CCN(Cc4c[nH]c5cnccc45)CC3)C2)cc1 | 1170
COC(=O)c1cccc(CNCc2ccc(-c3ccc(-c4nc5ccc(C(F)(F)F)cc5[nH]4)cc3)cc2)c1 | 300
NC1=NC(Cc2ccccc2)(c2ccncc2)C(=O)N1CCCc1ccccc1 (configuration not stated) | 940
CC1(CCN2CCC(c3c[nH]c4cnccc34)CC2)CCCc2c(Br)cccc2C1=O (configuration not stated) | 200
Cc1cc(NC2CCN(CC3CCCCC3)C2)nc(Nc2ccc(Cl)cc2)n1 (configuration not stated) | 400
C[C@@H]1CN(c2ccnc3ccc(Sc4ccc(Oc5ccccc5)cc4)cc23)C[C@H](C)N1 | 780
CCC(C)OC(=O)C1=C(C)NC2=C(C(=O)CC(c3ccc(OC)c(OC)c3)C2)C1c1ccc(O)cc1 (configuration not stated) | 220
CCOC(=O)c1ccc(N(CCCN(CCCN(c2ccc(C(=O)OCC)cc2)S(=O)(=O)c2ccc(C)cc2)CCc2ccc(O)cc2)S(=O)(=O)c2ccc(C)cc2)cc1 | 1050
CCOC(=O)c1cnc2c(OC)cc(OC)c(Cl)c2c1Nc1cccc(C)c1 | 840
CN1CCCN(Cc2cccc(-c3ccc(NC(=O)c4cccc(Cl)c4)cc3)c2)CC1 | 930
O=C(Nc1cccc(CN2CCCN(Cc3ccccc3)CC2)c1)c1cc2ccccc2s1 | 1200
CC1CN=C(c2cccc(NC(=O)Nc3cccc(C4=NCC(C)N4)c3)c2)N1 (configuration not stated) | 360
O=C(Nc1ccc(S(=O)(=O)N2CCCCC2)cc1)c1cc(-c2ccccc2O)n[nH]1 | 850
Cc1cc(N2CCCC2)nc(Nc2ccc(NC(=O)COc3ccccc3)cc2)n1 | 650

SMILES | IC50 [nM]
N#Cc1ccc2c(c1)CCN(CCC1CCC(Nc3ncnc4ccccc34)CC1)C2 (configuration not stated) | 630
CCOC(=O)C(=CNc1ccc(Cc2cnc(N)nc2N)cc1CC)C(=O)OCC | 1140
CCc1ccnc2c(N3CCCC3=O)cc(C(=O)N[C@@H](Cc3ccccc3)[C@H](O)CNC3CCOCC3)cc12 | 380
CC(C)[C@H](NC(=O)c1ccc(O)c(-c2cccc(C(F)(F)F)c2)c1)C(=O)NCCN1CCCCC1 | 840
Cc1cccc(-n2c(=O)c3c4c(sc3n3c(SCCC(C)C)nnc23)CCCC4)c1 | 760
O=C(Nc1cccc(F)c1)N1CCC(CN2CCOC(c3ccccc3)(c3ccccc3)C2)CC1 | 200
CC1(C)CCNc2cc(NC(=O)c3ccc(-c4ncccc4C(F)(F)F)cc3)ccc21 | 900
CN(CCCc1c[nH]c2ccccc12)CCC1CCC(NC(=O)/C=C/c2ccc(Cl)c(Cl)c2)CC1 (configuration not stated) | 650
Cc1[nH]c(C)c(-c2ccc(Oc3ccc(Cl)cc3Cl)cc2)c(=O)c1Br | 300
Oc1ccccc1CN(CCCN(Cc1ccccn1)Cc1ccccc1O)Cc1ccccn1 | 1060
Cc1ccc(NC(C)C(=O)Nc2ccccc2)cc1S(=O)(=O)N1CCCCCC1 (configuration not stated) | 60
NCC(=O)c1cc2c(cc1N)OCCO2 | 1360
CC(C)(C)c1cc(C(=O)N2CCC(c3ccccn3)CC2)n(Cc2ccccc2)n1 | 960
O=C(COc1ccc(Cl)cc1)N1CCC(CN2CCC(c3c[nH]c4ccccc34)CC2)CC1 | 1100
CN(Cc1ccccc1)C(=O)c1nn(CCCN2CCC(N3CCCC3)CC2)cc1-c1ccc(Cl)c(Cl)c1 | 770
COc1cc2nc(NCC3CCCO3)n3nc(-c4ccccc4)nc3c2cc1OC (configuration not stated) | 210
CCN(CC)Cc1cc(NC(=O)c2ccccc2O)ccc1Oc1ccc(Cl)cc1 | 830
CN(C)c1ccc(CN2CCC(NC(=O)c3ccc(-c4ccccc4F)s3)CC2)cc1 | 1120
Cc1cc(NCCc2ccccc2)nc(/N=C(\N)Nc2ccc(Cl)cc2)n1 | 230
CC(C)Oc1ccc2ccccc2c1CNCCCCCCNCc1c(OC(C)C)ccc2ccccc12 | 610
CN(C)CCOc1cc(NC(=O)c2ccc(-c3ccc(Cl)cc3Cl)cc2)ccc1-c1ccccc1 | 910
CCN(CC)CCN(Cc1ccc(-c2ccc(C(F)(F)F)cc2)cc1)C(=O)Cn1cc(Cc2cnn(C)c2)c(=O)n2nc(-c3ccccc3)cc12 | 730
